Results as given in patent publication US20060058312A1, “Stabilized aqueous preparation for injection” (priority 2004, published 2006).
Where two headings read alike, the source gives them in different places.

Tests used:
[1] = format: physicochemical; conditions: buffer, 13 mg/mL, pH 6.2
Experimental: (§1) For the aqueous preparations obtained in (1) to (3) above, tests evaluating stability at 60° C./3 weeks were performed. The calcium levofolinate content remaining in the aqueous solution was measured using high performance liquid chromatography under the following conditions (the same were employed in the following experiments) 2 ml each of the test preparations were weighed, and 10 ml of the internal standard solution described below (the same was employed in the following experiments) were added thereto. Subsequently, water was added to adjust the total volume of the solution to 50 ml, thereby to prepare a test solution. Meanwhile, 62.5 mg of calcium levofolinate were dissolved in water so as to prepare a 25 ml solution. Then, to 10 ml of the resultant solution were added 10 ml of the internal standard solution, and the total volume of the solution was adjusted to 50 ml by adding water, thereby to prepare a standard solution. For 20 μl of the standard solution and the test solution, the content of calcium levofolinate was measured by the liquid chromatography method under the following conditions.
(§2) 1) Measurement Conditions • Detector: Ultraviolet absorptiometer (Measurement wavelength: 254 nm) • Column: A stainless tube having an internal diameter of 4.0 mm and a length of 15 cm was filled with 5 μm of octadecylsilylated silica gel for liquid chromatography. • Column temperature: A constant temperature near 45° C. • Mobile phase: The pH value of a mixed test solution containing 0.008 mol/L of disodium hydrogen phosphate solution/methanol/40% aqueous tetrabutylammonium hydroxide solution (385:110:1.3 (volume ratio)) was adjusted to 7.5 by adding phosphoric acid. • Flow rate: The flow rate was regulated so that the retention time of calcium levofolinate became about 10 minutes. • Internal standard solution: A solution prepared by adding water to 0.04 g of methyl parahydroxybenzoate so that the whole amount of solution is 100 ml.
About 1100 ml of water for injection were added to a beaker. Then, 8.04 g of sodium chloride, 3.6 g of tromethamine, 3.6 g of ascorbic acid, and 1.2 g of sodium pyrosulfite were added thereto with bubbling of nitrogen gas, and the components were dissolved with stirring. To the resultant solution were added 15.62 g of calcium levofolinate, which were dissolved with stirring. Thereafter, the pH value of the solution was adjusted to 6.2 by adding 5% hydrochloric acid solution dropwise. Water for injection was further added to the solution to adjust the total volume to 1200 ml. Subsequently, the bubbling of nitrogen gas was stopped, and the solution was filtered with a filtration filter, thereby to yield a solution for injection. A 5 ml-syringe made of polypropylene, the inside space of which had been substituted by nitrogen gas, was filled with 5 ml of the resultant solution for injection, followed by steam sterilization under high pressure at 105° C. for 30 minutes. The thus-sterilized syringe was packaged together with a deoxidant, AGELESS ZP-50 (trade name, Mitsubishi Gas Chemical Company, Inc. Japan) by using a plastic film with high air impermeability.
For an aqueous preparation as obtained above, a stability test (60° C./75% RH, and 40° C./75% RH) was performed by measuring the content of calcium levofolinate remaining after storage for a certain period by the high performance liquid chromatography method.

[2] = Change of pH value of the aqueous solution during storage; format: physicochemical; conditions: aqueous solution adjusted to pH 6 to 7
[3] = Stability test at 60° C., effect of pH value without ascorbic acid (Example 3), HPLC content; format: physicochemical; conditions: no addition of ascorbic acid; for remaining calcium levofolinate content compared with the initial value (100): 60° C.
Experimental: as §1, §2
About 80 ml of water for injection were added to a beaker (volume: 200 ml). Then, 0.56 g of sodium chloride and 0.3 g of tromethamine were added to it with bubbling of nitrogen gas, and the components were dissolved with stirring and heating to 45 to 50° C. Subsequently, 1.375 g of calcium levofolinate (1.1 g, in terms of 5-formyl-(6S)-tetrahydrofolic acid) were added, and the components were dissolved with stirring. Thereafter, the pH value of the solution was adjusted to 6.0 by adding 5% hydrochloric acid solution dropwise. A similar procedure to the above was performed to produce solutions, each having a regulated pH value of 7.0, 7.5, 7.9, 8.1, 8.3, 8.7, 9.0, 9.2, and 9.5 (1% aqueous sodium hydroxide solution was used in place of 5% hydrochloric acid solution).
Water for injection was further added to each solution to adjust the total volume of the solution to 100 ml. Subsequently, the bubbling of nitrogen gas was stopped, and each solution was filtered with a filtration filter, thereby to yield a solution for injection. Subsequently, each of nine 5 ml-glass ampules the inside space of which had been substituted by nitrogen gas was filled with 5 ml of the resultant solution for injection, and was sealed by heating.
For each aqueous preparation obtained as above, a test evaluating stability at 60° C. was performed by measuring the remaining levofolinate content by the high performance liquid chromatography method. […] In the cases of pH 6 to 7 and pH 8.7 to pH 9, an extremely excellent stabilizing effect was confirmed.

## Nc1nc(=O)c2c([nH]1)NC[C@H](CNc1ccc(C(=O)N[C@@H](CCC(=O)O)C(=O)O)cc1)N2C=O [calcium levofolinate, (6S)-N-[4-[[(2-amino-5-formyl-1,4,5,6,7,8-hexahydro-4-oxo-6-pteridinyl)methyl]amino]benzoyl]-L-glutamic acid]
[1]; 0 months
  remaining ratio (%) of calcium levofolinate: 100%
[1]; 0 weeks
  remaining ratio (%) of calcium levofolinate: 100%
[1]; 1 month
  remaining ratio (%) of calcium levofolinate: 101.2%
[1]; 2 months
  remaining ratio (%) of calcium levofolinate: 100.2%
[1]; 4 months
  remaining ratio (%) of calcium levofolinate: 95.7%
[1]; 6 months
  remaining ratio (%) of calcium levofolinate: 92.8%
[1]; 168 h
  remaining ratio (%) of calcium levofolinate: 99.0%
[1]; 336 h
  remaining ratio (%) of calcium levofolinate: 97.5%
[1]; 504 h
  remaining ratio (%) of calcium levofolinate: 95.8%
[1]; 672 h
  remaining ratio (%) of calcium levofolinate: 94.3%
[2]
  change of pH value of the aqueous solution during storage: gradually changes to an acid region
[3]; pH value 6.0, 1 month
  remaining calcium levofolinate content compared with the initial value (100): 88.7
[3]; pH value 6.0, 1 week
  remaining calcium levofolinate content compared with the initial value (100): 94.7
[3]; pH value 6.0, 2 weeks
  remaining calcium levofolinate content compared with the initial value (100): 92.5
[3]; pH value 6.0, 3 weeks
  remaining calcium levofolinate content compared with the initial value (100): 90.1
[3]; pH value 6.0
  calcium levofolinate content, Initial value (100): 100
[3]; pH value 7.0, 1 month
  remaining calcium levofolinate content compared with the initial value (100): 88.6
[3]; pH value 7.0, 1 week
  remaining calcium levofolinate content compared with the initial value (100): 94.8
[3]; pH value 7.0, 2 weeks
  remaining calcium levofolinate content compared with the initial value (100): 92.2
[3]; pH value 7.0, 3 weeks
  remaining calcium levofolinate content compared with the initial value (100): 90.1
[3]; pH value 7.0
  calcium levofolinate content, Initial value (100): 100
[3]; pH value 7.5, 1 month
  remaining calcium levofolinate content compared with the initial value (100): 84.2
[3]; pH value 7.5, 1 week
  remaining calcium levofolinate content compared with the initial value (100): 93.4
[3]; pH value 7.5, 2 weeks
  remaining calcium levofolinate content compared with the initial value (100): 89.0
[3]; pH value 7.5, 3 weeks
  remaining calcium levofolinate content compared with the initial value (100): 86.8
[3]; pH value 7.5
  calcium levofolinate content, Initial value (100): 100
[3]; pH value 7.9, 1 month
  remaining calcium levofolinate content compared with the initial value (100): 81.9
[3]; pH value 7.9, 1 week
  remaining calcium levofolinate content compared with the initial value (100): 95.1
[3]; pH value 7.9, 2 weeks
  remaining calcium levofolinate content compared with the initial value (100): 89.7
[3]; pH value 7.9, 3 weeks
  remaining calcium levofolinate content compared with the initial value (100): 86.3
[3]; pH value 7.9
  calcium levofolinate content, Initial value (100): 100
[3]; pH value 8.1, 1 week
  remaining calcium levofolinate content compared with the initial value (100): 95.4
[3]; pH value 8.1, 2 weeks
  remaining calcium levofolinate content compared with the initial value (100): 91.5
[3]; pH value 8.1, 3 weeks
  remaining calcium levofolinate content compared with the initial value (100): 85.6
[3]; pH value 8.1
  calcium levofolinate content, Initial value (100): 100
[3]; pH value 8.3, 1 week
  remaining calcium levofolinate content compared with the initial value (100): 93.6
[3]; pH value 8.3, 2 weeks
  remaining calcium levofolinate content compared with the initial value (100): 91.1
[3]; pH value 8.3, 3 weeks
  remaining calcium levofolinate content compared with the initial value (100): 85.5
[3]; pH value 8.3
  calcium levofolinate content, Initial value (100): 100
[3]; pH value 8.7, 1 week
  remaining calcium levofolinate content compared with the initial value (100): 94.7
[3]; pH value 8.7, 2 weeks
  remaining calcium levofolinate content compared with the initial value (100): 93.6
[3]; pH value 8.7, 3 weeks
  remaining calcium levofolinate content compared with the initial value (100): 88.3
[3]; pH value 8.7
  calcium levofolinate content, Initial value (100): 100
[3]; pH value 9.0, 1 week
  remaining calcium levofolinate content compared with the initial value (100): 96.1
[3]; pH value 9.0, 2 weeks
  remaining calcium levofolinate content compared with the initial value (100): 93.3
[3]; pH value 9.0, 3 weeks
  remaining calcium levofolinate content compared with the initial value (100): 88.6
[3]; pH value 9.0
  calcium levofolinate content, Initial value (100): 100
[3]; pH value 9.2, 1 week
  remaining calcium levofolinate content compared with the initial value (100): 94.4
[3]; pH value 9.2, 2 weeks
  remaining calcium levofolinate content compared with the initial value (100): 93.4
[3]; pH value 9.2, 3 weeks
  remaining calcium levofolinate content compared with the initial value (100): 87.7
[3]; pH value 9.2
  calcium levofolinate content, Initial value (100): 100
[3]; pH value 9.5, 1 week
  remaining calcium levofolinate content compared with the initial value (100): 93.7
[3]; pH value 9.5, 2 weeks
  remaining calcium levofolinate content compared with the initial value (100): 92.4
[3]; pH value 9.5, 3 weeks
  remaining calcium levofolinate content compared with the initial value (100): 85.3
[3]; pH value 9.5
  calcium levofolinate content, Initial value (100): 100
